The results in this text go back to patent publication US10278962B2, “Tricyclic analogues, preparation method and uses thereof” (SHANGHAI INSTITUTE OF MATERIA MEDICA, CHINESE ACADEMY OF …, priority 2015, dated 2019).

The target in assay [1] is T1, ACAT2 (Homo sapiens (Human), UniProt O75908). Nature of the assay: Inhibitory effect on ACAT2 activity, NBD22-fluorescent labeled sterol method in intact HepG2 cells. The settings on record: for IC50: NBD22-fluorescent labeled sterol, 6 hours incubation; for inhibition rate % on ACAT2 activity: relative inhibition rate with Pyripyropene A (0.2 μM) as the 100% inhibition control. It is filed as cell-based. The method, then: An inhibition curve was plotted based on that different concentrations of compounds would cause the fluorescence intensity to change by inhibiting the synthesis of the ester containing NBD22-fluorescent labeled sterol, thereby IC50 was calculated.
T1 sequence (O75908 whole entry): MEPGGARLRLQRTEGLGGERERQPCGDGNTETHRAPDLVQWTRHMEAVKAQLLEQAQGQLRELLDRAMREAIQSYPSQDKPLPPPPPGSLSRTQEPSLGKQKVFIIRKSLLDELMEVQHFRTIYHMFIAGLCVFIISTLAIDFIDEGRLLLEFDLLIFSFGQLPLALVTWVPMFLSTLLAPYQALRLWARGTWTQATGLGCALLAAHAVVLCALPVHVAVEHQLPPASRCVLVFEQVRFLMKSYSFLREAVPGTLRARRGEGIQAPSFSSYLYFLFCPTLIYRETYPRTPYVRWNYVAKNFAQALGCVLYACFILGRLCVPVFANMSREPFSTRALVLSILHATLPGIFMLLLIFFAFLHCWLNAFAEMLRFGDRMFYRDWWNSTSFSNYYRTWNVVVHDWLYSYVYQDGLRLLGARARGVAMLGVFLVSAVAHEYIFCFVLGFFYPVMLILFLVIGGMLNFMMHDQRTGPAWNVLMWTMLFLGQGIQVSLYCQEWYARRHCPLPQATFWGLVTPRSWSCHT
HepG2 cells were cultured in a 96-well plate at a starting density of 1.5×10^4 cells per well for 24 hours. After the cholesterol mixture was well mixed, the cells were cultured for another 24 hours. Then NBD22-fluorescent labeled sterol at a final concentration of 0.5 μg/ml, and compounds at a final concentration gradient of 0, 0.008, 0.04, 0.2, 1 and 5 μM were added. Three wells were set for each concentration. After incubating for 6 hours, the fluorescence intensity was measured using a fluorescence analyzer (E488, A535). The fluorescence intensity values were plotted against different concentrations of the compounds and IC50 was obtained.

The target of assay [2] is T1, ACAT2. Nature of the assay: Cholesterol oxidase method for ACAT activity in HepG2 cells, ACAT2. It counts as cell-based. The settings on record: 10 μg/ml cholesterol, 9 hours. The protocol:
HepG2 cells were used for testing the inhibitory effect of compounds at different concentrations on ACAT1 or ACAT2 activity, thereby obtaining IC50 to calculate SI(ACAT1-IC50/ACAT2-IC50).
HepG2 cells were cultured in a 6-well plate at a starting density of 4×10^5 cells per well for 24 hours, then the medium was replaced and 10 μg/ml of cholesterol and the compounds at different concentrations were added. The cells were cultured for another 9 hours and cholesterol amounts of the cells were measured with Cholesterol Assay kit.

Broadly, the IC50 is the concentration that gives 50% inhibition. The low end stands for greater potency, the high end for weaker potency. Consider `CC(=O)OCC(C)(OC(C)=O)[C@H]1CC2[C@@H](O)c3c(cc(-c4cccnc4)oc3=O)O[C@]2(C)[C@@H](OC(C)=O)C1` (stereo in doubt) [Compound 16], for which the IC50 against ACAT2 [1] stood at 245 nM. In other words, the sub-micromolar range.
On to `CC(=O)OCC(COC(C)=O)[C@@H]1C[C@H](OC(C)=O)[C@@]2(C)Oc3cc(-c4cccnc4)oc(=O)c3C(=O)[C@@H]2C1` [Compound 2], for which the “inhibition rate % on ACAT2 activity” value against ACAT2 [1] is on record as 104%.
Still for that read-out and setting: the result for `CC(=O)OCC(C)(OC(C)=O)[C@@H]1C[C@H](OC(C)=O)[C@@]2(C)Oc3cc(-c4cccnc4)oc(=O)c3C(=O)[C@@H]2C1` (stereo partly shown) [Compound 3] reads 90%; that for `CC(=O)OCC(COC(C)=O)[C@@H]1C[C@H](OC(C)=O)[C@@]2(C)Oc3cc(-c4cccnc4)oc(=O)c3[C@@H](O)[C@@H]2C1` [Compound 6], 90%.
As for `CC(=O)OCC(C)(OC(C)=O)[C@@H]1C[C@H](OC(C)=O)[C@@]2(C)Oc3cc(-c4cccnc4)oc(=O)c3[C@@H](O)[C@@H]2C1` (stereo partly shown) [Compound 7], the IC50 at ACAT2 [2] turned out to be 147 nM; against ACAT2 [1], 152 nM.
For `CC(=O)OCC(C)(OC(C)=O)[C@@H]1C[C@H](OC(=O)c2ccc(C#N)cc2)[C@@]2(C)Oc3cc(-c4cccnc4)oc(=O)c3[C@@H](OC(C)=O)[C@@H]2C1` (stereo partly shown) [Compound 8], in that order: 61 nM and 86 nM.
For `CC(O)(COC(=O)c1ccc(C#N)cc1)[C@@H]1C[C@H](OC(=O)c2ccc(C#N)cc2)[C@@]2(C)Oc3cc(-c4cccnc4)oc(=O)c3C(=O)[C@@H]2C1` (stereo partly shown) [Compound 13], in that order: 12 nM and 23 nM.
For the compound `CC(O)(COC(=O)c1ccc(C#N)cc1)[C@@H]1C[C@H](O)[C@@]2(C)Oc3cc(-c4cccnc4)oc(=O)c3C(=O)[C@@H]2C1` (stereo partly shown) [Compound 14], the concentration for half-maximal inhibition (IC50) at ACAT2 [2] amounted to 129 nM; against ACAT2 [1], 103 nM.
As for `CC(=O)OCC(C)(OC(C)=O)[C@@H]1C[C@H](OC(C)=O)[C@@]2(C)Oc3cc(-c4cccnc4)oc(=O)c3[C@@H](O)[C@@H]2C1` (stereo partly shown) [Compound 15], on ACAT2 [1], 831 nM corresponded to half-maximal inhibition (IC50).
Regarding `CC(=O)OC[C@](C)(OC(C)=O)[C@@H]1C[C@@H]2[C@@H](O)c3c(cc(-c4cccnc4)oc3=O)O[C@@]2(C)[C@H](OC(C)=O)C1` [Compound 21], the figures for the IC50 against ACAT2 [2] and at ACAT2 [1] were 55 nM and 78 nM, respectively.
For `CC(=O)OC[C@](C)(OC(C)=O)[C@H]1C[C@@H](OC(C)=O)[C@]2(C)Oc3cc(-c4cccnc4)oc(=O)c3[C@@H](O)[C@@H]2C1` [Compound 22], in that order: 90 nM and 86 nM.
Compound `CC(=O)OC[C@](C)(OC(C)=O)[C@@H]1C[C@@H]2[C@H](O)c3c(cc(-c4cccnc4)oc3=O)O[C@@]2(C)[C@H](OC(C)=O)C1` [Compound 26] yielded an IC50 against ACAT2 [1] of 433 nM. In other words, the sub-micromolar range.
On ACAT2 [1], `CC(=O)OC[C@](C)(O)[C@H]1C[C@@H](O)[C@]2(C)Oc3cc(-c4cccnc4)oc(=O)c3[C@H](O)[C@H]2C1` [Compound 29] came in with an IC50 of 81 nM.
